Publication PMC4648982 (Chemistry Central Journal, 2015)
“Also recorded” adds a separate entry of the source. Counter-ions that a name gives are not always drawn.

Target: jack bean urease (Canavalia ensiformis, UniProt P07374)
Assay: biochemical
Settings: for urease inhibitory activity in words: in vitro assay, authors' verbal grading
Experimental: Reaction mixture comprising of 25μL of enzyme (jack bean urease) (1 unit/well) solution and 55 μL of phosphate buffers (4 mM) containing 100 mM urea were incubated with 5 μL of test compounds dissolved in methanol (0.5 mM concentration) at 30 °C for 15 min in 96-well plates. Urease activity was determined by measuring ammonia production using the indophenol method as described by Weather burn. Briefly, 45 μl each phenol reagent (1 % w/v phenol and 0.005 % w/v sodium nitroprussside) and 70 μL of alkali reagent(0.5 % w/v NaOH and 0.1 % active chloride NaOCl) were added to each well. The increasing absorbance at 630 nm was measured afther 50 min, using a microplate reader (Molecular Device, USA). All reactions were performed in triplicate in a final volume of 200 μL. The results (change in absorbance per min) were processed by using softMax Pro software (molecular Device, USA). The entire assays were performed at pH 6.8. Percentage inhibitions were calculated from the formula 100 − (ODtestwell/ODcontrol) × 100. Thiourea was used as the standard inhibitor of urease.

jack bean urease, sequence (P07374 whole entry, looked up): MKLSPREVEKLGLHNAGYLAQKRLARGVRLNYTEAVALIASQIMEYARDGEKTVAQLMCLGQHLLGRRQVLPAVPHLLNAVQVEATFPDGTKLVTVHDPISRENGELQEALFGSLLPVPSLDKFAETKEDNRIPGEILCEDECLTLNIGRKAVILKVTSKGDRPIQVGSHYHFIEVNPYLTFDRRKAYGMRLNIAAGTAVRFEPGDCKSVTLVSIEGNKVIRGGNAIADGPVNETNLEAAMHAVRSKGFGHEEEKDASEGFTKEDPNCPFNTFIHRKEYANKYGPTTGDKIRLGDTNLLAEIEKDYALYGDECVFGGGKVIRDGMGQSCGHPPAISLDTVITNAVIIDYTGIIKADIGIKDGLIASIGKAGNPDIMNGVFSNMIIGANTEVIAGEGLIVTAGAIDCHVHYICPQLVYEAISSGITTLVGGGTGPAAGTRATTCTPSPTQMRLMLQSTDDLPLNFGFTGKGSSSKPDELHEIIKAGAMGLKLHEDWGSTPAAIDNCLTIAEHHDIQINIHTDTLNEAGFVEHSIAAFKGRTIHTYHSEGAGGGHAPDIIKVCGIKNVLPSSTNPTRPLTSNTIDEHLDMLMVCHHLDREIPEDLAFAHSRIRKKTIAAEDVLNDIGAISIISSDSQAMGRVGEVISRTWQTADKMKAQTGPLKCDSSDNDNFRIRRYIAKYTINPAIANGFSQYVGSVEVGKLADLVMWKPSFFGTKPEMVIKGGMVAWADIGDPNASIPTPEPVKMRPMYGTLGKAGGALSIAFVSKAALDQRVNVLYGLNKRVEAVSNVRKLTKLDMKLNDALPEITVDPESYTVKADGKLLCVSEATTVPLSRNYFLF

`Cn1c(O)c(C(C2=C(O)CC(C)(C)CC2=O)c2ccc(Cl)cc2Cl)c(=O)n(C)c1=O` (centres unmarked) [Compound 4w, 5-((2,4-Dichlorophenyl)(2-hydroxy-4,4-dimethyl-6-oxocyclohex-1-en-1-yl)methyl)-1,3-dimethyl-2,6-dioxo-1,2,3,6-tetrahydropyrimidin-4-olate diethylaminium salt] was tested, and the IC50 was 59.4 ± 0.98 µM.
With `Cn1c(O)c(C(C2=C(O)CC(C)(C)CC2=O)c2ccc(C=O)cc2)c(=O)n(C)c1=O` (centres unmarked) [Compound 4x, 4-((6-hydroxy-1,3-dimethyl-2,4-dioxo-1,2,3,4-tetrahydropyrimidin-5-yl)(2-hydroxy-4,4-dimethyl-6-oxocyclohex-1-en-1-yl)methyl)benzaldehyde diethylaminium salt] the IC50 was 38.5 ± 0.28 µM.
For `Cn1c(O)c(C(C2=C(O)CC(C)(C)CC2=O)c2c(Cl)cccc2Cl)c(=O)n(C)c1=O` (centres unmarked) [Compound 4y, 5-((2,6-Dichlorophenyl)(2-hydroxy-4,4-dimethyl-6-oxocyclohex-1-en-1-yl)methyl)-1,3-dimethyl-2,6-dioxo-1,2,3,6-tetrahydropyrimidin-4-olate diethylaminium salt], the IC50 was 83.4 ± 1 µM.
Compound `Cn1c(O)c(C(C2=C(O)CC(C)(C)CC2=O)c2ccc3ccccc3c2)c(=O)n(C)c1=O` (centres unmarked) [Compound 4z, 5-((2-Hydroxy-4,4-dimethyl-6-oxocyclohex-1-en-1-yl)(naphthalen-2-yl)methyl)-1,3-dimethyl-2,6-dioxo-1,2,3,6-tetrahydropyrimidin-4-olate diethylaminium salt] has an IC50 of 39.8 ± 1.38 µM.
Work on `CC1(C)CC(=O)C(C(C2=C(O)CC(C)(C)CC2=O)c2ccccc2)=C(O)C1` [Compound 5a, 2-((2-Hydroxy-4,4-dimethyl-6-oxocyclohex-1-en-1-yl)(phenyl)methyl)-5,5-dimethyl-3-oxocyclohex-1-enolate diethylaminium salt] yielded an IC50 of 74.5 ± 0.88 µM.
For `CC1(C)CC(=O)C(C(C2=C(O)CC(C)(C)CC2=O)c2ccc(Cl)cc2)=C(O)C1` [Compound 5b, 2-((4-Chlorophenyl)(2-hydroxy-4,4-dimethyl-6-oxocyclohex-1-en-1-yl)methyl)-5,5-dimethyl-3-oxocyclohex-1-enolate diethylaminium salt], the IC50 was 29.7 ± 0.67 µM.
`COc1ccc(C(C2=C(O)CC(C)(C)CC2=O)C2=C(O)CC(C)(C)CC2=O)cc1` [Compound 5e, 2-((2-Hydroxy-4,4-dimethyl-6-oxocyclohex-1-en-1-yl)(4-methoxyphenyl)methyl)-5,5-dimethyl-3-oxocyclohex-1-enolate diethylaminium salt] was tested, and the IC50 was 39.8 ± 0.75 µM.
In the case of `CC1(C)CC(=O)C(C(C2=C(O)CC(C)(C)CC2=O)c2ccc([N+](=O)[O-])cc2)=C(O)C1` [Compound 5f, 2-((2-Hydroxy-4,4-dimethyl-6-oxocyclohex-1-en-1-yl)(4-nitrophenyl)methyl)-5,5-dimethyl-3-oxocyclohex-1-enolate diethylaminium salt], the IC50 is reported as 106 ± 1.49 µM and the “urease inhibitory activity in words” value is reported as “inactivity”.
In the case of `CC1(C)CC(=O)C(C(C2=C(O)CC(C)(C)CC2=O)c2c(Cl)cccc2Cl)=C(O)C1` [Compound 5g, 2-((2,6-Dichlorophenyl)(2-hydroxy-4,4-dimethyl-6-oxocyclohex-1-en-1-yl)methyl)-5,5-dimethyl-3-oxocyclohex-1-enolate diethylaminium salt], the IC50 is reported as 170.7 ± 1.55 µM and the “urease inhibitory activity in words” value is reported as “least active; also recorded: inactivity”.
In the case of `CC1(C)CC(=O)C(C(C2=C(O)CC(C)(C)CC2=O)c2cccc([N+](=O)[O-])c2)=C(O)C1` [Compound 5h, 2-((2-Hydroxy-4,4-dimethyl-6-oxocyclohex-1-en-1-yl)(3-nitrophenyl)methyl)-5,5-dimethyl-3-oxocyclohex-1-enolate diethylaminium salt], the IC50 is reported as 49 ± 0.55 µM and the “urease inhibitory activity in words” value is reported as “good urease inhibitory activity”.
In the case of `CC1(C)CC(=O)C(C(C2=C(O)CC(C)(C)CC2=O)c2ccccc2[N+](=O)[O-])=C(O)C1` [Compound 5i, 2-((2-Hydroxy-4,4-dimethyl-6-oxocyclohex-1-en-1-yl)(2-nitrophenyl)methyl)-5,5-dimethyl-3-oxocyclohex-1-enolate diethylaminium salt], the IC50 is reported as 210.1 ± 0.29 µM and the “urease inhibitory activity in words” value is reported as “inactivity”.
In the case of `CC1(C)CC(=O)C(C(C2=C(O)CC(C)(C)CC2=O)c2ccc(C=O)cc2)=C(O)C1` [Compound 5j, 2-((4-Formylphenyl)(2-hydroxy-4,4-dimethyl-6-oxocyclohex-1-en-1-yl)methyl)-5,5-dimethyl-3-oxocyclohex-1-enolate diethylaminium salt], the IC50 is reported as 72.6 ± 0.59 µM.
`CC1(C)CC(=O)C(C(C2=C(O)CC(C)(C)CC2=O)c2ccc(O)cc2)=C(O)C1` [Compound 5k, 2-((2-Hydroxy-4,4-dimethyl-6-oxocyclohex-1-en-1-yl)(4-hydroxyphenyl)methyl)-5,5-dimethyl-3-oxocyclohex-1-enolate diethylaminium salt] was tested, and the IC50 was 43.8 ± 0.33 µM and the “urease inhibitory activity in words” value was “good urease inhibitory activity”.
`Cn1c(O)c(C(c2ccc(C=O)cc2)c2c(O)[nH]c(=O)[nH]c2=O)c(=O)n(C)c1=O` (centres unmarked) [Compound 5l, 4-((6-Hydroxy-1,3-dimethyl-2,4-dioxo-1,2,3,4-tetrahydropyrimidin-5-yl)(6-hydroxy-2,4-dioxo-1,2,3,4-tetrahydropyrimidin-5-yl)methyl)benzaldehyde diethylaminium salt] was tested, and the IC50 was 17.2 ± 0.44 µM and the “urease inhibitory activity in words” value was “most active”.
`CC1(C)CC(=O)C(C(c2ccc(Cl)cc2)c2c(O)[nH]c(=O)[nH]c2=O)=C(O)C1` (centres unmarked) [Compound 5m, 5-((4-Chlorophenyl)(2-hydroxy-4,4-dimethyl-6-oxocyclohex-1-en-1-yl)methyl)-2,6-dioxo-1,2,3,6-tetrahydropyrimidin-4-olate diethylaminium salt] showed an IC50 of 65.9 ± 0.61 µM.
In the case of `CC1(C)CC(=O)C(C(c2ccccc2)c2c(O)[nH]c(=O)[nH]c2=O)=C(O)C1` (centres unmarked) [Compound 5n, 5-((2-Hydroxy-4,4-dimethyl-6-oxocyclohex-1-en-1-yl)(phenyl)methyl)-2,6-dioxo-1,2,3,6-tetrahydropyrimidin-4-olate diethylaminium salt], the IC50 is reported as 23.7 ± 0.57 µM and the “urease inhibitory activity in words” value is reported as “active”.
For `CC1(C)CC(=O)C(C(c2ccc(Br)cc2)c2c(O)[nH]c(=O)[nH]c2=O)=C(O)C1` (centres unmarked) [Compound 5o, 5-((4-Bromophenyl)(2-hydroxy-4,4-dimethyl-6-oxocyclohex-1-en-1-yl)methyl)-2,6-dioxo-1,2,3,6-tetrahydropyrimidin-4-olate diethylaminium salt], the IC50 was 34.6 ± 0.79 µM.
`Cc1ccc(C(C2=C(O)CC(C)(C)CC2=O)c2c(O)[nH]c(=O)[nH]c2=O)cc1` (centres unmarked) [Compound 5p, 5-((2-Hydroxy-4,4-dimethyl-6-oxocyclohex-1-en-1-yl)(p-tolyl)methyl)-2,6-dioxo-1,2,3,6-tetrahydropyrimidin-4-olate diethylaminium salt] showed an IC50 of 27.4 ± 0.54 µM.
Work on `CC1(C)CC(=O)C(C(c2ccc(C=O)cc2)c2c(O)[nH]c(=O)[nH]c2=O)=C(O)C1` (centres unmarked) [Compound 5q, 2-((4-Formylphenyl)(6-hydroxy-2,4-dioxo-1,2,3,4-tetrahydropyrimidin-5-yl)methyl)-5,5-dimethyl-3-oxocyclohex-1-enolate diethylaminium salt] yielded an IC50 of 41.6 ± 0.41 µM.
With `CC1(C)CC(=O)C(C(c2ccc3ccccc3c2)c2c(O)[nH]c(=O)[nH]c2=O)=C(O)C1` (centres unmarked) [Compound 5r, 5-((2-Hydroxy-4,4-dimethyl-6-oxocyclohex-1-en-1-yl)(naphthalen-2-yl)methyl)-2,6-dioxo-1,2,3,6-tetrahydropyrimidin-4-olate diethylaminium salt] the IC50 was 82.8 ± 0.72 µM.
With `CC1(C)CC(=O)C(C(C2=C(O)CC(C)(C)CC2=O)c2ccc3ccccc3c2)=C(O)C1` [Compound 5s, 2-((2-Hydroxy-4,4-dimethyl-6-oxocyclohex-1-en-1-yl)(naphthalen-2-yl)methyl)-5,5-dimethyl-3-oxocyclohex-1-enolate diethylaminium salt] the IC50 was 123.2 ± 0.37 µM and the “urease inhibitory activity in words” value was “inactivity”.
